The assay relates to Akt serine-473 phosphorylation. The assay is described as follows: In vitro Phospho-Akt cellular assay (pAkt S473) in HEK293T/17 cells. Conditions: Homo sapiens, 2 hours. The class given is cell-based. The text has this: Activation of mTOR signaling results in phosphorylation of several downstream targets. In cells, mTOR exists in two different protein complexes. The mTOR Complex-1 (mTORC1) phosphorylates and activates S6 Kinase 1 (S6K1) and S6 Kinase 2 (S6K2) (also known as p70S6K) which then phosphorylate S6 Ribosomal Protein (S6RP) (also known as RPS6)3. S6RP is phosphorylated on serine 235, serine 236, serine 240 and serine 244 by both pS6K1 and pS6K2. The mTOR Complex-2 (mTORC2) phosphorylates AKT on serine 473 which activates the AKT signaling pathway.
The assay measures a test compound's inhibition of S6RP serine-240/244 phosphorylation and inhibition of Akt serine-473 phosphorylation in human embryonic kidney derived HEK293T/17 cells (ATCC CRL-11268).
The HEK293T/17 cell line is maintained in DMEM media (Invitrogen catalogue number 41965-039) supplemented with 10% FCS at 37° C. in a 5% CO2 humidified incubator.
Cells are seeded in 96-well plates at 40,000 cells/well (pS6RP S240/244 assay) or 80,000 cells/well (pAkt S473 assay) in 90 μl growth media (DMEM, 2% FCS). Plates are incubated for 1 hour in a humidified incubator to allow the cells to adhere. Cells are treated with 8 concentrations of test compounds or DMSO alone for controls (final DMSO concentration 0.1%) and incubated at 37° C. for 2 hours. Then 20 μl of 5× concentrated lysis buffer (750 mM NaCl, 100 mM Tris pH7.4, 5 mM ADTA, 5 mM EGTA, 5% Triton X-100) is added, plates are sealed and incubated for 15 minutes at 4° C. with gentle shaking. After cell lysis, 25 μl cell lysate is transferred to a MesoScale plate coated with an antibody to pS6RP Ser240/244 (MesoScale Discovery K150DGD-3) or an antibody to pAkt Ser 473 (MesoScale Discovery K151DGD-3). Plates have been blocked before by incubation with 150 μl MesoScale Discovery Blocking Solution-A for 1 hour at room temperature followed by washing with 150 μl 1× Tris wash buffer per well. After the transfer of the cell lysate to the MSD plate, the pS6RP (or pAkt) protein is captured on the coated antibody by incubation at room temperature for 1 hour with gentle shaking. After the capture step the plate is washed three times with 150 μl of 1× Tris wash buffer per well. Then 25 μl detection antibody conjugated with a Sulfo-Tag is added and incubated for 1 hour at room temperature with gentle shaking. Subsequently the antibody solution is removed and the plate is washed 3 times with 150 μl×Tris wash buffer per well and 150 μl Read buffer is added. The plates are analysed on a MSD 2400 Plate Reader (MesoScale Discovery). Data analysis is performed using nonlinear regression for a sigmoidal dose-response with a variable slope.
Consider `CCNC(=O)Nc1ccc(-c2nc3c(c(N4CCOC[C@@H]4C)n2)CN(C(=O)C(C)(C)C)C3)cc1` [Example 22, (S)-1-ethyl-3-(4-(4-(3-methylmorpholino)-6-pivaloyl-6,7-dihydro-5H-pyrrolo[3,4-d]pyrimidin-2-yl)phenyl)urea], for which inhibition was half-maximal at 29 nM (IC50).
In the case of `CCNC(=O)Nc1ccc(-c2nc3c(c(N4CCOC[C@@H]4C)n2)CN(C)C3)cc1` [Example 26, (S)-1-ethyl-3-(4-(6-methyl-4-(3-methylmorpholino)-6,7-dihydro-5H-pyrrolo[3,4-d]pyrimidin-2-yl)phenyl)urea], the IC50 – broadly, the concentration that inhibits the measured activity by half – is 68 nM.
The compound `CCNC(=O)Nc1ccc(-c2nc3c(c(N4CCOC[C@@H]4C)n2)CCN(CC)C3)cc1` [Example 27, (S)-1-ethyl-3-(4-(7-ethyl-4-(3-methylmorpholino)-5,6,7,8-tetrahydropyrido[3,4-d]pyrimidin-2-yl)phenyl)urea] yielded an IC50 of 16 nM.
On to `CCNC(=O)N1Cc2nc(-c3ccc(NC(=O)NC4CC4)cc3)nc(N3CCOC[C@@H]3C)c2C1` [Example 33, (S)-2-(4-(3-cyclopropylureido)phenyl)-N-ethyl-4-(3-methylmorpholino)-5H-pyrrolo[3,4-d]pyrimidine-6(7H)-carboxamide], for which the IC50 came to 160 nM.
The compound `CCNC(=O)Nc1ccc(-c2nc3c(c(N4CCOC[C@@H]4C)n2)CCN(C)C3)cc1` [Example 35, (S)-1-ethyl-3-(4-(7-methyl-4-(3-methylmorpholino)-5,6,7,8-tetrahydropyrido[3,4-d]pyrimidin-2-yl)phenyl)urea] returned an IC50 of 14 nM.
Then `CCNC(=O)Nc1ccc(-c2nc3c(c(N4CCOC[C@@H]4C)n2)CCN(CC2CC2)C3)cc1` [Example 37, (S)-1-(4-(7-(cyclopropylmethyl)-4-(3-methylmorpholino)-5,6,7,8-tetrahydropyrido[3,4-d]pyrimidin-2-yl)phenyl)-3-ethylurea], with 45 nM; and `C[C@H]1COCCN1c1nc(-c2ccc(NC(=O)NC3CC3)cc2)nc2c1CCN(CC1CC1)C2` [Example 40, (S)-1-cyclopropyl-3-(4-(7-(cyclopropylmethyl)-4-(3-methylmorpholino)-5,6,7,8-tetrahydropyrido[3,4-d]pyrimidin-2-yl)phenyl)urea], with 43 nM.
In turn, `CC(C)N1CCc2c(nc(-c3ccc(NC(=O)NC4CC4)cc3)nc2N2CCOC[C@@H]2C)C1` [Example 43, (S)-1-cyclopropyl-3-(4-(7-isopropyl-4-(3-methylmorpholino)-5,6,7,8-tetrahydropyrido[3,4-d]pyrimidin-2-yl)phenyl)urea] gave an IC50 of 35 nM.
Under `CCNC(=O)Nc1ccc(-c2nc3c(c(N4CCOC[C@@H]4C)n2)CCN(C(=O)C2CC2)C3)cc1` [Example 56, (S)-1-(4-(7-(cyclopropanecarbonyl)-4-(3-methylmorpholino)-5,6,7,8-tetrahydropyrido[3,4-d]pyrimidin-2-yl)phenyl)-3-ethylurea] stands 19 nM; under `CCNC(=O)Nc1ccc(-c2nc3c(c(N4CCOC[C@@H]4C)n2)CCN(C(=O)C(C)C)C3)cc1` [Example 57, (S)-1-ethyl-3-(4-(7-isobutyryl-4-(3-methylmorpholino)-5,6,7,8-tetrahydropyrido[3,4-d]pyrimidin-2-yl)phenyl)urea], 14 nM.
Under `COC(=O)N1Cc2nc(-c3ccc(NC(=O)NC4CC4)cc3F)nc(N3CCOC[C@@H]3C)c2C1` [Example 146, (S)-methyl 2-(4-(3-cyclopropylureido)-2-fluorophenyl)-4-(3-methylmorpholino)-5H-pyrrolo[3,4-d]pyrimidine-6(7H)-carboxylate] stands 41 nM; under `CCNC(=O)Nc1ccc(-c2nc3c(c(N4CCOCC4)n2)CN(C(=O)OCC)C3)c(F)c1` [Example 151, Ethyl 2-(4-(3-ethylureido)-2-fluorophenyl)-4-morpholino-5H-pyrrolo[3,4-d]pyrimidine-6(7H)-carboxylate], 107 nM.
`CCNC(=O)Nc1ccc(-c2nc3c(c(N4CCOC[C@@H]4C)n2)CN(C(=O)OC)C3)c(F)c1` [Example 152, (S)-methyl 2-(4-(3-ethylureido)-2-fluorophenyl)-4-(3-methylmorpholino)-5H-pyrrolo[3,4-d]pyrimidine-6-(7H)-carboxylate] returned an IC50 of 49 nM.
Take `CCOC(=O)N1Cc2nc(-c3ccc(NC(=O)NC4CC4)cc3F)nc(N3CCOCC3)c2C1` [Example 156, Ethyl 2-(4-(3-cyclopropylureido)-2-fluorophenyl)-4-morpholino-5H-pyrrolo[3,4-d]pyrimidine-6(7H)-carboxylate]: inhibition was half-maximal at 76 nM (IC50).
Then `CN1Cc2nc(-c3ccc(NC(=O)NC4CC4)cc3F)nc(N3CCOCC3)c2C1` [Example 159, 1-(Cyclopropyl)-3-(3-fluoro-4-(6-methyl-4-morpholino-6,7-dihydro-5H-pyrrolo[3,4-d]pyrimidin-2-yl)phenyl)urea], with 314 nM.
The compound `CCNC(=O)Nc1ccc(-c2nc3c(c(N4CCOCC4)n2)CN(C(=O)OC)C3)c(F)c1` [Example 162, methyl 2-(4-(3-ethylureido)-2-fluorophenyl)-4-morpholino-5H-pyrrolo[3,4-d]pyrimidine-6(7H)-carboxylate] registered an IC50 of 85 nM.
Under `C[C@H]1COCCN1c1nc(-c2ccc(NC(=O)NC3CC3)cc2F)nc2c1CCN(C(=O)N(C)C)C2` [Example 165, (S)-2-(4-(3-cyclopropylureido)-2-fluorophenyl)-N,N-dimethyl-4-(3-methylmorpholino)-5,6-dihydropyrido[3,4-d]pyrimidine-7(8H)-carboxamide] stands 37 nM; under `CCOC(=O)N1Cc2nc(-c3ccc(NC(=O)NCCF)cc3F)nc(N3CCOCC3)c2C1` [Example 170, ethyl 2-(2-fluoro-4-(3-(2-fluoroethyl)ureido)phenyl)-4-morpholino-5H-pyrrolo[3,4-d]pyrimidine-6(7H)-carboxylate], 54 nM; under `CC(C)N1Cc2nc(-c3ccc(NC(=O)NC4CC4)cc3F)nc(N3CCOC[C@@H]3C)c2C1` [Example 172, (S)-1-cyclopropyl-3-(3-fluoro-4-(6-isopropyl-4-(3-methylmorpholino)-6,7-dihydro-5H-pyrrolo[3,4-d]pyrimidin-2-yl)phenyl)urea], 101 nM.
Then `COC(=O)N1Cc2nc(-c3ccc(NC(=O)NC4CC4)cc3F)nc(N3CCOCC3)c2C1` [Example 173, Methyl 2-(4-(3-cyclopropylureido)-2-fluorophenyl)-4-morpholino-5H-pyrrolo[3,4-d]pyrimidine-6(7H)-carboxylate], with 49 nM.
Then `CCNC(=O)Nc1ccc(-c2nc3c(c(N4CCOC[C@@H]4C)n2)CCN(C(=O)N(C)C)C3)c(F)c1` [Example 176, (S)-2-(4-(3-ethylureido)-2-fluorophenyl)-N,N-dimethyl-4-(3-methylmorpholino)-5,6-dihydropyrido[3,4-d]pyrimidine-7(8H)-carboxamide], with 54 nM; and `C[C@H]1COCCN1c1nc(-c2ccc(NC(=O)NC3CC3)cc2F)nc2c1CN(C(=O)N(C)C)C2` [Example 178, (S)-2-(4-(3-cyclopropylureido)-2-fluorophenyl)-N,N-dimethyl-4-(3-methylmorpholino)-5H-pyrrolo[3,4-d]pyrimidine-6(7H)-carboxamide], with 52 nM; and `CCOC(=O)N1Cc2nc(-c3ccc(NC(=O)NC4CC4)cc3F)nc(N3CCOC[C@H]3C)c2C1` [Example 179, (R)-ethyl 2-(4-(3-cyclopropylureido)-2-fluorophenyl)-4-(3-methylmorpholino)-5H-pyrrolo[3,4-d]pyrimidine-6(7H)-carboxylate], with 31 nM.

The values above are taken from US8785457B2 (Cellzome Limited, priority 2009, dated 2014).
